# Data from patent publication US6461807B1, “Methods for drug target screening” (priority 1997, dated 2002).
# Legend:
# [1] = test system: S. cerevisiae wild-type and cna, cph1, fpr1 deletion strains; assay: Transcript array comparison of drug-exposed wild-type and deletion mutant yeast, microarray with approximately 5900 ORFs; assay type: cell-based, Saccharomyces cerevisiae
# Protocol: (§1) The RNA was converted into cDNA while simultaneously incorporating fluorescent nucleotides, according to standard protocols as described above. The cDNAs were hybridized to either a microarray having 140 sites with relevant S. cerevisiae ORF sequences, or to a microarray having sites with 5900 sites with nearly all known S. cerevisiae ORF sequences. The intensities of the two fluors used to label the RNAs to be compared were measured at each site of the array. The ratio of these intensities is referred to as the expression ratio.
# (§2) To produce deletion mutant transcript arrays, RNA was prepared from a publicly available S. cerevisiae strain that contains genetic disruptions in both catalytic subunits of calcineurin (hereinafter, the cna mutant) and its isogeneic with the parental wild-type strain. These two strains were grown in parallel, harvested and processed in an identical manner as described above. As above, the cDNAs were hybridized to the array and the intensities of the two fluors (expression ratio) were measured at each site of the array. Thereby a cna mutant transcript array was produced.
# (§3) Selected pairs of the transcript arrays were compared by computing a correlation coefficient between the pairs as previously described. As is known in the art, higher values of the correlation coefficient represent a greater degree of similarity between the pair of arrays. As indicated subsequently, in some cases expression ratios were directly used for this computation, while in other cases the log10 function of the expression ratios were used.
# In this table, columns two and three list the transcript arrays that are compared (labeled “First Transcript Array” and “Second Transcript Array”). Their correlation coefficient is presented in the fourth column (labeled “Corr. Coef.”). The number of standard deviations represented by the correlation coefficient (in terms of the expected correlation coefficient representing one Gaussian standard deviation) is presented in the fifth column (labeled “Std. Dev.”). The expected standard deviation depends on the data set size according to known statistical procedures. The number of standard deviations above the expected mean can be used to determine the statistical significance of the correlation coefficient, as is known in the art.
# The transcript arrays measured in Tables 1 and 2 were similarly produced by the previously described methods.
# [2] = test system: S. cerevisiae wild-type and cna, cph1, fpr1 deletion strains; assay: Transcript array comparison of drug-exposed wild-type and deletion mutant yeast, microarray with 140 selected ORF sites; assay type: cell-based, Saccharomyces cerevisiae; conditions: Table 3, 140 ORF sites
# Protocol: as §1, §2
# Deletion mutant transcript arrays were also produced in similar manners for disruptions to the genes cph1 (coding the major cyclophilin in yeast) and fpr1 (coding the major FK506-binding protein).
# as §3
# This table, in contrast to Table 1 and 2 (which were created from microarrays with approximately 5900 ORF sites) was created from microarray having sites with 140 S. cerevisiae selected ORF sites thought to be relevant to the primary action of these drugs. Correlation coefficients were computed using log10 of the raw expression ratios.
# [3] = Table 1, log10 of expression ratios, 1 mg/ml FK506 or 30 mg/ml CSA
smiles,measurement,setting,value
C=CC[C@@H]1/C=C(\C)C[C@H](C)C[C@H](OC)[C@H]2O[C@@](O)(C(=O)C(=O)N3CCCC[C@H]3C(=O)O[C@H](/C(C)=C/[C@@H]3CC[C@@H](O)[C@H](OC)C3)[C@H](C)[C@@H](O)CC1=O)[C@H](C)C[C@@H]2OC [FK506],"Corr. Coef., wild-type drug transcript array vs fpr1 mutant transcript array","[1]; Table 1, log10 of expression ratios, 1 mg/ml FK506",−0.011
same,"Corr. Coef., wild-type FK506 drug transcript array vs wild-type CSA drug transcript array","[1]; Table 1, log10 of expression ratios, 1 mg/ml FK506, 30 mg/ml CSA, three generations",0.334
same,"Corr. Coef., wild-type drug transcript array vs cna mutant drug transcript array (same drug)",[1]; [3],0.065
same,"Corr. Coef., wild-type drug transcript array vs cna mutant transcript array",[1]; [3],0.605
same,"Corr. Coef., wild-type drug transcript array vs cph1 mutant drug transcript array (same drug)",[1]; [3],0.767
same,"Corr. Coef., wild-type drug transcript array vs fpr1 mutant drug transcript array (same drug)",[1]; [3],−0.085
same,"Corr. Coef., wild-type FK506 drug transcript array vs cna mutant FK506 drug transcript array",[1]; Table 2,0.052
same,"Corr. Coef., wild-type FK506 drug transcript array vs cna mutant transcript array",[1]; Table 2,0.245
same,"Corr. Coef., wild-type FK506 drug transcript array vs cph1 mutant FK506 drug transcript array",[1]; Table 2,0.328
same,"Corr. Coef., wild-type FK506 drug transcript array vs fpr1 mutant FK506 drug transcript array",[1]; Table 2,0.136
same,"Corr. Coef., wild-type FK506 drug transcript array vs wild-type CSA drug transcript array",[1]; Table 2,0.243
same,"Corr. Coef., cna mutant FK506 drug transcript array vs cna mutant CSA drug transcript array",[2],0.20
same,"Corr. Coef., cph1 mutant FK506 drug transcript array vs cph1 mutant CSA drug transcript array",[2],0.15
same,"Corr. Coef., cph1 mutant FK506 drug transcript array vs fpr1 mutant CSA drug transcript array",[2],0.71
same,"Corr. Coef., fpr1 mutant FK506 drug transcript array vs cph1 mutant CSA drug transcript array",[2],0.40
same,"Corr. Coef., fpr1 mutant FK506 drug transcript array vs fpr1 mutant CSA drug transcript array",[2],−0.01
same,"Corr. Coef., wild-type FK506 drug transcript array vs wild-type CSA drug transcript array",[2]; log10 of raw expression ratios,0.67
same,"Corr. Coef., wild-type drug transcript array vs cna mutant drug transcript array (same drug)",[2]; log10 of raw expression ratios,−0.12
same,"Corr. Coef., wild-type drug transcript array vs cna mutant transcript array",[2]; log10 of raw expression ratios,0.61
same,"Corr. Coef., wild-type drug transcript array vs cph1 mutant drug transcript array (same drug)",[2]; log10 of raw expression ratios,0.70
same,"Corr. Coef., wild-type drug transcript array vs fpr1 mutant drug transcript array (same drug)",[2]; log10 of raw expression ratios,0.04
same,"Corr. Coef., wild-type vs wild-type transcript array vs wild-type drug transcript array",[2]; negative control comparison,−0.05
